Counter-ions that a name gives are not always drawn. Like-named read-outs stand apart in the source and are kept apart here.
How the values were obtained:
delF508-CFTR = molecular target: T1, delF508-CFTR (Homo sapiens, UniProt P13569, DEL508-508); experiment: Measurement of delF508-CFTR functional activity in primary human bronchial epithelial cells (HBECs) using Multi-Transepithelial Clamp Circuit (MTECC-24) assay; format: cell-based; conditions: primary CF HBECs; for MTECC24 CFHBEC- Amax %: test compound added 24h before assay plus potentiator, relative to reference combination (2 μM corrector + 0.5 μM potentiator); for EC50: test compound added 24h before assay, in the presence of potentiator, mean of at least two replicates, read-out: MTECC24 CFHBEC- EC50
T1 construct: functional activity of the CFTR channel (Chloride ion transport) in patient derived primary human bronchial epithelial cells; host or cells: patient-derived primary human bronchial epithelial cells (delF508-CFTR)
T1 sequence (P13569 with tags, fused parts or gaps DEL508-508): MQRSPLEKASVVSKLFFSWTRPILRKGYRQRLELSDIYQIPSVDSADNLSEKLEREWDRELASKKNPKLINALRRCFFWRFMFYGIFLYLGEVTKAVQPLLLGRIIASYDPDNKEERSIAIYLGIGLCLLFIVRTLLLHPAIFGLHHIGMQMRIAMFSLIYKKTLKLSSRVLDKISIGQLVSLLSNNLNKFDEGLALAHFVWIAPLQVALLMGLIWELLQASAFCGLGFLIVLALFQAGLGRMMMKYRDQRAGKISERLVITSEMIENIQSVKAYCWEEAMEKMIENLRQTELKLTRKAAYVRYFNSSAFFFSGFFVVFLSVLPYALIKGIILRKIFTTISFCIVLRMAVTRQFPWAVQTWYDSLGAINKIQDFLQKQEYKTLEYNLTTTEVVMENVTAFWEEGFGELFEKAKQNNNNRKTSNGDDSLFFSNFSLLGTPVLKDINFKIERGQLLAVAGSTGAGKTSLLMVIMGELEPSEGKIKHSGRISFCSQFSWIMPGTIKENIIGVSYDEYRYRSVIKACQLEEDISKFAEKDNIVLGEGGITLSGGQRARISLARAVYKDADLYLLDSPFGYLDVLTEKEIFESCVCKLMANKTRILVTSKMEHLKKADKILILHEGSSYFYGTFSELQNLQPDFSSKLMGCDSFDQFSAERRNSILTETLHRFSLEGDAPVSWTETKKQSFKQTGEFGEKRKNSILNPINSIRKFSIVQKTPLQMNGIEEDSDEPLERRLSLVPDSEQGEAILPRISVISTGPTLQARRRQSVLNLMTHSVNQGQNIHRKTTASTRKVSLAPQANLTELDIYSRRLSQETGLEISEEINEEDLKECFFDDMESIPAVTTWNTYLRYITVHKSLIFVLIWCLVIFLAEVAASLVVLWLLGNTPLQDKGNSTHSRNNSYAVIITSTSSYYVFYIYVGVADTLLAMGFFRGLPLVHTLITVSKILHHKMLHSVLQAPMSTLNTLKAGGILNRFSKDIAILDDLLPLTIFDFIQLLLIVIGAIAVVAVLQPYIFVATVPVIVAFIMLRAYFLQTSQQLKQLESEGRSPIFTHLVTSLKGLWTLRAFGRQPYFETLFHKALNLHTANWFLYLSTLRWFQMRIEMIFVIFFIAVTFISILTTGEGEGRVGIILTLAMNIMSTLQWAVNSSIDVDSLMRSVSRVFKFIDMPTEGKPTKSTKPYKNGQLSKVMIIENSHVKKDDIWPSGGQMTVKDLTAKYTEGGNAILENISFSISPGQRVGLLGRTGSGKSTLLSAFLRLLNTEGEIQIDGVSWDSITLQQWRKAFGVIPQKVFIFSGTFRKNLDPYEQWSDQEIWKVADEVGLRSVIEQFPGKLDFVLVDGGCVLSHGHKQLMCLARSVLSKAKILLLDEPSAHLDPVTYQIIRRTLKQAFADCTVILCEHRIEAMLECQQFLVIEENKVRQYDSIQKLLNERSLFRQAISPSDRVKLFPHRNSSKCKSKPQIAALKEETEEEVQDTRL
In short: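 Patient-derived primary delF508-CFTR HBECs, differentiated at air-liquid interface ~2 weeks, treated basolaterally with compound for 24 h, then apical and basolateral compound in HEPES pH 7.4 assay medium. Equivalent short-circuit current (Ieq) recorded on MTECC-24 with sequential amiloride, forskolin, potentiator and INH-172; normalized to 0.1% DMSO, EC50 from curve fit.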

[1] = molecular target: T2, horseradish peroxidase (HRP) tagged delF508-CFTR (Homo sapiens, UniProt P13569, DEL508-508); experiment: Measurement of delF508-CFTR-HRP surface expression in CFBE41o- cells; format: cell-based; conditions: for Emax: read-out: DelF508-CFTR-HRP Amax %;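 for DelF508-CFTR-HRP Amax %: percent efficacy relative to reference corrector lumacaftor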
T2 construct: expressed in transfected cells
T2 sequence (P13569 with tags, fused parts or gaps DEL508-508): as above
In short: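 CFBE41o- bronchial epithelial cells stably expressing delF508-CFTR with HRP in the fourth extracellular loop; expression induced 48h with 500 ng/mL doxycycline, then compounds added (top 10 μM, 10-point 3-fold series, ≤0.5% DMSO) for 24h at 37° C. Surface HRP measured by luminescence with cell-impermeant substrate; EC50 from logistic fit of triplicates, plate-normalized to lowest concentration; efficacy also relative to a reference corrector.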

[2] = delF508-CFTR-HRP surface expression, CFBE41o- cells
[3] = delF508-CFTR-HRP surface expression, CFBE41o- cells, read-out: DelF508-CFTR-HRP EC50

| SMILES | MTECC24 CFHBEC- Amax % (delF508-CFTR) | EC50 (delF508-CFTR) | Emax [1, 2] | EC50 [1, 3] | EC50 [1] | Emax ([1]; CFBE41o-) |
| --- | --- | --- | --- | --- | --- | --- |
| Cc1ccc(F)cc1-c1nc(NS(=O)(=O)c2cccc(N3CCN[C@H](CO)C3)n2)ccc1C(F)(F)F [Example 175, (S)—N-(6-(5-fluoro-2-methylphenyl)-5-(trifluoromethyl)pyridin-2-yl)-6-(3-(hydroxymethyl)piperazin-1-yl)pyridine-2-sulfonamide Hydrochloride] | 63.4% | 281 nM | 530% | 3270 nM |  |  |
| Cc1ccc(F)cc1-c1nc(NS(=O)(=O)c2cccc(N3CCN[C@H](C)C3)n2)ccc1C(F)(F)F [Example 176, (R)—N-(6-(5-fluoro-2-methylphenyl)-5-(trifluoromethyl)pyridin-2-yl)-6-(3-methylpiperazin-1-yl)pyridine-2-sulfonamide Hydrochloride] | 69.8% | 224 nM | 529% | 3420 nM |  |  |
| Cc1ccc(F)cc1-c1nc(NS(=O)(=O)c2cccc(N3CCN[C@@H](C)C3)n2)ccc1C(F)(F)F [Example 177, (S)—N-(6-(5-fluoro-2-methylphenyl)-5-(trifluoromethyl)pyridin-2-yl)-6-(3-methylpiperazin-1-yl)pyridine-2-sulfonamide Hydrochloride] | 79.7% | 232 nM | 447% | 2810 nM |  |  |
| Cc1ccc(F)cc1-c1nc(NS(=O)(=O)c2cccc(N3C[C@@H](C)N[C@@H](C)C3)n2)ccc1C(F)(F)F [Example 178, 6-((3S,5R)-3,5-dimethylpiperazin-1-yl)-N-(6-(5-fluoro-2-methylphenyl)-5-(trifluoromethyl)pyridin-2-yl)pyridine-2-sulfonamide Hydrochloride] | 66.3% | 209 nM | 231% | 1150 nM |  |  |
| Cc1ccccc1-c1nc(NS(=O)(=O)c2cccc(N3CC4CCC(C3)N4)n2)ccc1C(F)(F)F [Example 181, 6-(3,8-diazabicyclo[3.2.1]octan-3-yl)-N-(6-(o-tolyl)-5-(trifluoromethyl)pyridin-2-yl)pyridine-2-sulfonamide Hydrochloride] | 101.5% | 39.8 nM |  |  | 2670 nM | 454% |
| Cc1ccccc1-c1nc(NS(=O)(=O)c2cccc(N3CCN(C4COC4)CC3)n2)ccc1C(F)(F)F [Example 187, 6-(4-(oxetan-3-yl)piperazin-1-yl)-N-(6-(o-tolyl)-5-(trifluoromethyl)pyridin-2-yl)pyridine-2-sulfonamide] | 78.8% | 92 nM | 634% | 2560 nM |  |  |
| Cc1ccccc1-c1nc(NS(=O)(=O)c2cccc(N3CCN(C(=O)CN)CC3)n2)ccc1C(F)(F)F [Example 191, 6-(4-glycylpiperazin-1-yl)-N-(6-(o-tolyl)-5-(trifluoromethyl)pyridin-2-yl)pyridine-2-sulfonamide hydrochloride] | 64.4% | 101 nM | 206% | 3860 nM |  |  |
| Cc1ccc(F)cc1-c1nc(NS(=O)(=O)c2cccc(N3CCNCC3)n2)ccc1Cl [Example 193, N-(5-chloro-6-(5-fluoro-2-methylphenyl)pyridin-2-yl)-6-(piperazin-1-yl)pyridine-2-sulfonamide hydrochloride] | 81.2% | 178 nM | 385% | 3920 nM |  |  |

Now from value to compound, other results behind:

| MTECC24 CFHBEC- Amax % (delF508-CFTR) | EC50 (delF508-CFTR) | Emax [1, 2] | EC50 [1, 3] | SMILES | EC50 [1] | Emax ([1]; CFBE41o-) |
| --- | --- | --- | --- | --- | --- | --- |
| 91.9% | 31.6 nM |  | 2080 nM | Cc1ccc(F)cc1-c1nc(NS(=O)(=O)c2cccc(N3CCN(C)CC3)n2)ccc1C(F)(F)F [Example 179, N-(6-(5-fluoro-2-methylphenyl)-5-(trifluoromethyl)pyridin-2-yl)-6-(4-methylpiperazin-1-yl)pyridine-2-sulfonamide] |  |  |
| 44.5% | 9.4 nM | 627% | 1500 nM | CC(=O)N1CCN(c2cccc(S(=O)(=O)Nc3ccc(C(F)(F)F)c(-c4cc(F)ccc4C)n3)n2)CC1 [Example 180, 6-(4-acetylpiperazin-1-yl)-N-(6-(5-fluoro-2-methylphenyl)-5-(trifluoromethyl)pyridin-2-yl)pyridine-2-sulfonamide] |  |  |
| 89.6% | 87.8 nM | 485% | 3220 nM | Cc1ccccc1-c1nc(NS(=O)(=O)c2cccc(N3CCN(CCO)CC3)n2)ccc1C(F)(F)F [Example 182, 6-(4-(2-hydroxyethyl)piperazin-1-yl)-N-(6-(o-tolyl)-5-(trifluoromethyl)pyridin-2-yl)pyridine-2-sulfonamide Hydrochloride] |  |  |
| 67.8% | 74.9 nM | 191% | 896 nM | Cc1ccccc1-c1nc(NS(=O)(=O)c2cccc(N3CCN(CC(N)=O)CC3)n2)ccc1C(F)(F)F [Example 183, 2-(4-(6-(N-(6-(o-tolyl)-5-(trifluoromethyl)pyridin-2-yl)sulfamoyl)pyridin-2-yl)piperazin-1-yl)acetamide] |  |  |
| 69.2% | 53.5 nM | 149% | 835 nM | Cc1ccccc1-c1nc(NS(=O)(=O)c2cccc(N3CCN(C(N)=O)CC3)n2)ccc1C(F)(F)F [Example 184, 4-(6-(N-(6-(o-tolyl)-5-(trifluoromethyl)pyridin-2-yl)sulfamoyl)pyridin-2-yl)piperazine-1-carboxamide] |  |  |
| 105.5% | 4.6 nM | 877% | 1460 nM | Cc1ccccc1-c1nc(NS(=O)(=O)c2cccc(N3CCN(CC(F)F)CC3)n2)ccc1C(F)(F)F [Example 185, 6-(4-(2,2-difluoroethyl)piperazin-1-yl)-N-(6-(o-tolyl)-5-(trifluoromethyl)pyridin-2-yl)pyridine-2-sulfonamide] |  |  |
| 81.5% | 2.6 nM |  | 1190 nM | Cc1ccccc1-c1nc(NS(=O)(=O)c2cccc(N3CCN(CC(F)(F)F)CC3)n2)ccc1C(F)(F)F [Example 186, N-(6-(o-tolyl)-5-(trifluoromethyl)pyridin-2-yl)-6-(4-(2,2,2-trifluoroethyl)piperazin-1-yl)pyridine-2-sulfonamide] |  |  |
| 79.0% | 31.7 nM | 414% | 2830 nM | Cc1ccccc1-c1nc(NS(=O)(=O)c2cccc(N3CCN(C)CC3)n2)ccc1C(F)(F)F [Example 189, 6-(4-methylpiperazin-1-yl)-N-(6-(o-tolyl)-5-(trifluoromethyl)pyridin-2-yl)pyridine-2-sulfonamide] |  |  |
| 64.5% | 13.2 nM | 565% | 3410 nM | Cc1ccccc1-c1nc(NS(=O)(=O)c2cccc(N3CCNC(=O)C3)n2)ccc1C(F)(F)F [Example 190, 6-(3-oxopiperazin-1-yl)-N-(6-(o-tolyl)-5-(trifluoromethyl)pyridin-2-yl)pyridine-2-sulfonamide] |  |  |
| 42.3% | 16.1 nM | 279% | 2520 nM | Cc1cccc(C)c1-c1nc(NS(=O)(=O)c2cccc(N3CCNCC3=O)n2)ccc1Cl [Example 192, N-(5-chloro-6-(2,6-dimethylphenyl)pyridin-2-yl)-6-(2-oxopiperazin-1-yl)pyridine-2-sulfonamide hydrochloride] |  |  |

— patent US11066369B2, “N-(pyridin-2-yl)pyridine-sulfonamide derivatives and their use in the treatment of disease” (Novartis AG, priority 2016, dated 2021)
